The text below walks through data of patent US20130039956A1, “USE OF NITROCARBOXYLIC ACIDS FOR THE TREATMENT, DIAGNOSIS AND PROPHYLAXIS OF AGGRESSIVE HEALING PATTERNS” (priority 2010, published 2013).

Assay [1] has as its system Human peripheral blood mononuclear cells (PBMCs). The experiment in a line: Adhesion of serum proteins and monocyte activation induced by coated silicone. Also: key: 0: not superior to native FA (control); +: Superior to native FA; ++: superior to both; +++: outstanding effect. The note with it: dip-coated silicone, PBMCs 3 days; compared with native FA. In kind it is cell-based. Here is the method: In order to determine the effect of coating implant materials with nitro fatty acids to reduce adsorption of adhesion molecules and monocyte activation, sterile silicone sheets were out in small pieces and coated with respective nirocarboxylic acid and the corresponding native fatty acids by dip coating. Uncoated silicone pieces served as controls. For each fatty acid two sets of silicone pieces were bathed in freshly drawn human serum for 1 hour at 37° C., and another two sets were bathed in saline solutions. One set of both coated and uncoated pieces was analyzed immediately for adhesion proteins and the other set was placed in 96-well plates after rinsing the silicone pieces. Human peripheral blood mononuclear cells (PBMCs), isolated from three healthy subjects, were added to each well. Wells were incubated for 3 days under standard conditions. Culture supernatants were assayed for IL-1beta, IL-6, IL-8, and chemoattractant protein 1 (MCP-1) levels at the start and end of experiments.
Before analyzing the silicone pieces for protein adsorption, they were bathed in saline for 5 minutes. Thereafter, one side was rinsed with saline as performed for both sides in the set used for culturing. There was marked adsorption of fibrinogen and […] C5b-9 on the uncoated silicone. […] No protein was found on the surface of the nitro fatty acid-coated sample that was rinsed, thus, indicating the weak adherence of serum proteins.

For assay [2], the system named is canine cutaneous mastocytoma cells. As to the kind of experiment: Toxin response of mast cells (mastoparan, Streptolysin O, UVB). In kind it is cell-based. Conditions: preincubation 10 and 100 μmol, compared with native FA. Here is the method:
In order to determine membrane stabilizing and anticytotoxic properties of nitrated fatty acids, an in vitro model utilizing canine cutaneous mastocytoma cells was chosen. Cells were cultured according to standard procedure. Cytotoxic effects were quantified by measuring not only by Ca^2+ influx, histamine, and TNFα release, but also by using the MTT assay. Cell suspensions were incubated with 0.9% saline, one of the nitrocarboxylic acids as listed in table 1 or the respective native fatty acid as to achieve a final concentration of 10 and 100 μmol which was given to the medium 15 min before toxin application.
Mastoparan suspended in a buffer solution was added to the preincubated mast cell suspensions to achieve a final concentration of 10 or 30 μmol, respectively. Measurements were performed after 1 hour incubation time. […] Preincubation of mast cells with nitrated fatty acids reduced the effects on Ca^2+ influx, histamine release, and apoptosis induction in a dose-dependent manner, with an almost complete absence of apoptosis at a concentration of 100 μmol.
Streptolysin O was given to preincubated suspensions to achieve a final concentration of 500 ng/ml. Measurements were performed after 2 hours. Releases of histamine and TNFα in the suspensions were measured. After saline preincubation, a significant release of histamine and TNFα was observed.
Cell plates were exposed to a single dose (250 mJ/cm2) of UVB using a lamp (Saalmann, Herford, Germany) emitting most of its energy within the UVB range (295 to 315 nm). Tryptase levels in the supernatants were determined after 30 minutes, and concentrations of TNFα after 60 minutes. After preincubation with saline, there was a marked increase of tryptase. Preincubation with native fatty acids led to a dose-dependent reduction of tryptase release, which was significant at the lower irradiation dose but not after exposure to a high irradiation dose. […] For all nitrated fatty acids that were used the results were mostly inside the same range. Relative differences can be represented as follows: […]

The subject of assay [3] is Cardiomyocytes. The experiment in a line: TGF-β1-inducible formation of extracellular matrix in cardiomyocytes under shear stress. Also: key: 0: not superior to native FA (control); +: Superior to native FA; ++: superior to both; +++: outstanding effect. The format is cell-based. Conditions: 10-100 μmol, shear stress up to 100 dyn/cm^2; compared with native FA. Here is the method: Characterizing features of the fibrous remodelling in the heart are accentuated expression and deposition of extracellular matrix proteins (ECM). This has been attributed to increased mechanical forces via autocrine release of transforming growth factor-beta (TGF-beta). […] An established cell culture model was used to investigate the effect of shear stress on cardiomyocytes. Cardiomyocytes were cultured and transferred to a matrigel substrate. Plates with confluenced cells were placed into a shear force injury device (SFID). The SFID design is based on a cone-and-plate construction which is a well-defined rheological model in which a homogenously distributed laminar flow over the surface of the cells is generated by a rotating cone. The conical surface is positioned above a stationary flat plate and the fluid medium between these two surfaces is set in motion by rotating the cone to create a uniform level of fluid shear stress throughout the entire surface of the cells cultured on the coverslips.
A peak shear stress of 100 dyn/cm^2 could be applied without significant cell detachment enabling a maximum injury severity of 46%. Cells were exposed to FCS 1% without or with nitro-fatty acid, and the corresponding native fatty acid in a dosage range between 10 μmol and 100 μmol, 10 seconds before shear force application. Shear force peaks up to 100 dyn/cm^2 with a duration of 30 msec each with a repetition frequency of 60/minute were applied for 5, 10, 30 and 60 minutes. Thereafter the cell plates were washed and placed in FCS 1% for 24 hrs. The supernatant of the shear force investigation as well as that of the following culture phase was analysed. It could be shown that TGF-beta and ECM proteins (collagen I, fibronectin, laminin, elastin) increased after treatment in the control groups.

For assay [4], the system named is female Sprague-Dawley rats. The experiment in a line: Fibrogenesis in an in-vivo model of soft implant implantation. Also: key: 0: not superior to native FA (control); +: Superior to native FA; ++: superior to both; +++: outstanding effect. Also on record: species or system rat. Conditions: subcutaneous implants, 120 days, compared with native FA. Here is the method:
Silicone bag-gel miniprostheses (POLYTECH Health & Aesthetics GmbH, Dieburg, Germany) having a diameter of 2 cm and a volume of approximately 2 ml were used. […] The experimentally used implant models had two small tags which allowed the implants to be suspended during the coating procedures.
Each implant was treated in the following manner: cleaning by sonication for 2 min each in the following sequence of solvents: acetone, toluene, acetone, ethanol, and water. Implants were exposed to Piranha solution for 60 min and rinsed with deionized water. They were then immersed in a 20% aqueous solution of ammonium fluoride for 45 min to obtain a hydrogen-passivated Si surface. The ammonium fluoride solution was sparged with nitrogen for 15 min to remove dissolved oxygen. Prepared implants were transferred to a glass chamber filled with an inert atmosphere where they were suspended so that no part of their surface came in contact with the container. The container was filled with a 1-hexadecene solution and heated at 150° C. at a pressure of 2 Torr for 120 min. Prepared implants were cleaned in the following sequence of solvents: acetone, ethanol, and water. Formation of self assembled monolayer was controlled by measuring surface hydrophobicity; the contact angle was about 105°. Dry implants suspended in the container were then bathed in an ethanolic solution of oleic acid or nitro-oleic acid at a temperature of 40° C. for 120 min. Thereafter, the solution was allowed to run out slowly through an outlet at the bottom of the container. The emptying container was filled with inert gas in which the samples were maintained for 24 hours. Then samples were bathed three times in an ethanolic solution, followed by a final rinsing with sterile water. After drying, the container with the prepared implant was sterilized using ethylene oxide and stored at 20° C.
For in vivo testing, 24 uncoated and 24 coated implants were investigated in 24 female Sprague-Dawley rats (190-230 g). In the anesthetized animals, bilateral dorsal pockets in the subcutaneum were created by blunt dissection through paired paravertebral incisions. Each animal received one coated implant and one control implant on opposite sides, alternating sides on successive animals. Animals were housed and fed according to institutional standards for 120 days. Animals were sacrificed with chloroform. The implants and the adhering tissue were extracted by en bloc resection. The implants were cannulated and the liquid silicone gel was replaced by paraffin. Thereafter, the complete tissue block was prepared by standard means of histology, and stained with H&E or Masson's trichrome.

In the case of “5-nitro-eicosatrienoic acid [compound 4]”, the “Relative effect on serum protein adhesion and monocyte activation” value in assay [1] is on record as “+”. For the same compound, the “Relative differences: effect on toxin response of mast cells” value (“Relative differences: effect” below) in assay [2] is on record as “+”. For the same compound, the “Relative efficacy to suppress TGF-beta and ECM proteins in cardiomyocytes” value (from here on “Relative efficacy”) in assay [3] is reported as “+”.

Take 9,10-nitro-cis-oleic acid [compound 10]: the “Relative effect on serum protein adhesion and monocyte activation” value in assay [1] is listed as “++”. In assay [2], the “Relative differences: effect” value was “+++”. The “Relative efficacy” value in assay [3] is recorded as “++”. In assay [4], the “Relative effect of surface coating on fibrogenesis around silicone implants” value (shortened to “Relative effect of surface coating”) was “++”.

As for “9,10-nitro-trans-oleic acid [compound 15]”, the “Relative effect on serum protein adhesion and monocyte activation” value in assay [1] is given as “+”. Also, in assay [2], the “Relative differences: effect” value is recorded as “++”. In assay [3], the “Relative efficacy” value is listed as “+”. Moreover, the “Relative effect of surface coating” value in assay [4] is on record as “+”.

With `CCCCCCCC/C=C(/CCCCCCCC(=O)O)[N+](=O)[O-]` [compound 1, 9-nitro cis-oleic acid], the “Relative effect on serum protein adhesion and monocyte activation” value in assay [1] is given as “+++”. In addition, in assay [2], the “Relative differences: effect” value is on record as “+++”. Besides, the “Relative efficacy” value in assay [3] is reported as “++”. Also, in assay [4], the “Relative effect of surface coating” value is on record as “++”.

In the case of `CCCCC/C=C\C/C(=C\CCCCCCCC(=O)O)[N+](=O)[O-]` [compound 2, 10-nitro-cis-linoleic acid], in assay [1], the “Relative effect on serum protein adhesion and monocyte activation” value is reported as “++”. Also, the “Relative differences: effect” value in assay [2] is listed as “++”. The “Relative efficacy” value in assay [3] is listed as “++”. Also, the “Relative effect of surface coating” value in assay [4] is given as “++”.

For `CCCCCCCC/C(=C/CCCCCCCC(=O)O)[N+](=O)[O-]` [compound 3, 10-nitro-cis-oleic acid], the “Relative effect on serum protein adhesion and monocyte activation” value in assay [1] is on record as “++”. The “Relative differences: effect” value in assay [2] is on record as “+++”. Further, the “Relative efficacy” value in assay [3] was “++”. For the same compound, in assay [4], the “Relative effect of surface coating” value is on record as “++”.

Turning to `CCCCC/C=C(/C/C=C\C/C=C\C/C=C\C/C=C\CCC(=O)O)[N+](=O)[O-]` [compound 5, 16-nitro-all-cis-4,7,10,13,16-docosapentaenoic acid], in assay [1], the “Relative effect on serum protein adhesion and monocyte activation” value is recorded as “+”. The “Relative differences: effect” value in assay [2] is on record as “+”. The “Relative efficacy” value in assay [3] was “+”.

`CC/C=C\C/C=C\C/C(=C/C/C=C\C/C=C\CCCCCC(=O)O)[N+](=O)[O-]` [compound 7, 14-nitro-all-cis-7,10,13,16,19-docosapentaenoic acid]: the “Relative effect on serum protein adhesion and monocyte activation” value in assay [1] worked out at 0. Moreover, the “Relative differences: effect” value in assay [2] is recorded as “++”. Also, the “Relative efficacy” value in assay [3] was “+”.

For `CCCCCCCC/C(=C\CCCCCCCC(=O)O)[N+](=O)[O-]` [compound 12, 10-nitro-trans-oleic acid], the “Relative effect on serum protein adhesion and monocyte activation” value in assay [1] is 0. Moreover, in assay [2], the “Relative differences: effect” value was “++”.

For `CCCCCC/C=C(/CCCCCCCC(=O)O)[N+](=O)[O-]` [compound 13], the “Relative effect on serum protein adhesion and monocyte activation” value in assay [1] is “+”. Besides, the “Relative effect of surface coating” value in assay [4] is given as “+”.

Consider `CCCCCC=CCC=C(CC=CCC=CCCCC(=O)O)[N+](=O)[O-]` [compound 14, 11-nitro-5,8,11,14-eicosatrienoic acid], for which the “Relative effect on serum protein adhesion and monocyte activation” value in assay [1] is “+”. Further, the “Relative efficacy” value in assay [3] is given as “+”. In assay [4], the “Relative effect of surface coating” value was “+”.

Take `CCCCCC/C=C(\CCCCCCCC(=O)O)[N+](=O)[O-]` [compound 16, 9-nitro-9-trans-hexadecenoic acid]: in assay [1], the “Relative effect on serum protein adhesion and monocyte activation” value amounted to 0. Further, the “Relative differences: effect” value in assay [2] is listed as “++”. Moreover, in assay [4], the “Relative effect of surface coating” value is on record as 0.

Regarding `CCCCCCCC/C=C(/CCCCCCCCCCCC(=O)O)[N+](=O)[O-]` [compound 17, 13-nitro-cis-13-docosenoic acid], the “Relative effect on serum protein adhesion and monocyte activation” value in assay [1] is recorded as “+”. For the same compound, the “Relative differences: effect” value in assay [2] is reported as “+”.

Consider `CCCCC/C=C(/C/C=C\C/C=C(/C/C=C\CCCC(=O)O)[N+](=O)[O-])[N+](=O)[O-]` [compound 18, 8,14-nitro-cis-5,8,11,14-eicosatetraenoic acid], for which the “Relative effect on serum protein adhesion and monocyte activation” value in assay [1] is recorded as “++”. For the same compound, the “Relative differences: effect” value in assay [2] was 0.

Consider `CCC=CCC=C(CC=CCC=CCC=CCC=C(CCC(=O)O)[N+](=O)[O-])[N+](=O)[O-]` [compound 19, 4,16-nitro-docosahexaenoic acid], for which, in assay [1], the “Relative effect on serum protein adhesion and monocyte activation” value is on record as “+”. Moreover, the “Relative differences: effect” value in assay [2] is 0.

Regarding `CCCCCCCCCCC/C=C(/CCCCC(=O)O)[N+](=O)[O-]` [compound 21, 6-nitro-cis-6-octadecenoic acid], the “Relative effect on serum protein adhesion and monocyte activation” value in assay [1] was 0. In assay [3], the “Relative efficacy” value is listed as “++”. Moreover, the “Relative effect of surface coating” value in assay [4] is “+”.
